Measured values as given in US20250121024A1, “COMBINED USE OF IMIQUIMOD AND A CASEIN HYDROLYSATE FOR THE TREATMENT OF CONDYLOMA” (NTD LABS, S.L.U., priority 2021, published 2025).

System: condyloma
Test: Controlled, observational clinical trials of topical 5% imiquimod, oral casein hydrolysate and their combination in patients suffering from condyloma
Assay type: in vivo, human
Conditions: for Total resolution rate of condyloma (%): percentage of patients with total resolution
Description: The efficacy of the combination of imiquimod and a casein hydrolysate, according to the characteristics defined in the present invention, for the treatment of patients with condyloma was evaluated. Specifically, it was evaluated whether oral supplementation with the casein hydrolysate in patients treated with topical 5% imiquimod produced an improvement in treatment efficacy (rate of complete resolution of condyloma) and/or reduced recurrences (rate of recurrences) after the treatment.
A controlled, observational clinical trial was carried out, which included 44 female patients suffering from condyloma, who were divided into two groups: • Imiquimod group (I) (24 patients): treated with 5% imiquimod cream (3 times per week for up to 16 weeks). • Imiquimod+casein hydrolysate group (I+C) (20 patients): treated with 5% imiquimod cream (3 times per week for up to 16 weeks) plus oral casein hydrolysate (6 g once per day, for 6 months).
Likewise, a controlled, observational clinical trial was carried out with 20 patients suffering from condyloma (Group casein hydrolysate (C)) who were treated only with oral casein hydrolysate for 6 months (6 grams, once per day).
A commercially available casein hydrolysate (HuPaVir®) and a commercially available 5% imiquimod cream (Aldara® 5% cream) were used in the study.
In particular, the evaluation of patients at 4, 8, 12 and 16 weeks after starting treatment is included, as well as after 6 months (for group C some points are not available), wherein the percentage of patients with total resolution of condyloma during treatment (up to 16 weeks) and the recurrence rate 6 months after starting the treatment is reported.

## CC(C)Cn1cnc2c(N)nc3ccccc3c21 [I, 1-(2-methylpropyl)-1H-imidazo[4,5-c]quinoline-4-amine]
4 weeks after starting treatment
  Total resolution rate of condyloma (%): 8.33%
6 months after starting the treatment
  Recurrence rate (%): 14.3%
8 weeks after starting treatment
  Total resolution rate of condyloma (%): 28.57%
12 weeks after starting treatment
  Total resolution rate of condyloma (%): 58.33%
12 weeks after starting treatment, listed as imiquimod
  Total resolution rate of condyloma (%): 58%
16 weeks after starting treatment
  Total resolution rate of condyloma (%): 72.72%
